Experiment [1] deals with AAR. The note with it: ITC. An excerpt: To verify this assumption, we measured the binding affinity of K^+ ions with AAR, using ITC method.
AAR to perform all the experiments. The small organic molecule, such as stearoyl-CoA, can be used in high concentration, which is more favorable for either co-crystallization with AAR(-ADO) or soaking with the AAR(-ADO) crystals. In comparison, stearoyl-ACP is an 80-residue protein with a stearoyl chain linked to the 4’-phosphopanthetheine on a Ser residue, while the crystallization of protein-protein complexes (AAR-ACP) is much difficult than that of protein-ligand
(AAR-stearoyl-CoA) complexes.
ACP protein covalently linked with stearic chain (stearoyl-ACP), according to the […]
Considering the similar chemical structure of the acyl part of acyl-ACP and acyl-CoA, and the time-consuming experimental processes for obtaining the stearoyl-ACP protein and […]
In our originally submitted manuscript, we supposed that Mg2+ ion binds with AAR near its active site, but we […]
performed ITC experiment to confirm whether Mg2+ ions bind with AAR.
4. The authors assumed that Mg2+ and K+ ions bind to AAR in the crystals. However,
Therefore, it is required to confirm that Mg2+ and/or K+ really bind to AAR using […]
We have now performed the ITC
A general note: Isothermal titration calorimetry measures the heat released or taken up as one component is titrated into another.

Experiment [2] concerns AAR. The note with it: cited from earlier work.
Another experiment concerns the target T1, AAR-wt (Synechococcus elongatus, UniProt Q54765).
T1 construct: gene Synpcc7942_1594; full length (341 residues), C-terminal His-tag removed by TEV protease; expressed in E. coli BL21(DE3) with chaperone plasmid pG-KJE8
The experiment in a line: Isothermal titration calorimetry, stearoyl-CoA (650 uM) titrated into 30 uM AAR in 25 mM Tris-HCl pH 7.6, 1 mM TCEP, without KCl. Format: binding. The note with it: read-out: KD value (µM), AAR (−K+).

Experiment [3] has as its target T2, acyl-ACP reductase from Synechococcus elongatus PCC 7942, C294S mutant (Synechococcus elongatus PCC 7942, UniProt Q54765 1-341, C294S).
T2 construct: acyl-ACP reductase (AAR), Synechococcus elongatus PCC 7942, gene Synpcc7942_1594; complete protein of 341 residues; also called AAR C294S; AAR_(stearoyl-CoA); source: E. coli BL21(DE3), purified (same protocol as wild-type AAR); incubated with stearoyl-CoA before ADO was added; not shown: His6, C-terminal, cleaved
T2 sequence (looked up): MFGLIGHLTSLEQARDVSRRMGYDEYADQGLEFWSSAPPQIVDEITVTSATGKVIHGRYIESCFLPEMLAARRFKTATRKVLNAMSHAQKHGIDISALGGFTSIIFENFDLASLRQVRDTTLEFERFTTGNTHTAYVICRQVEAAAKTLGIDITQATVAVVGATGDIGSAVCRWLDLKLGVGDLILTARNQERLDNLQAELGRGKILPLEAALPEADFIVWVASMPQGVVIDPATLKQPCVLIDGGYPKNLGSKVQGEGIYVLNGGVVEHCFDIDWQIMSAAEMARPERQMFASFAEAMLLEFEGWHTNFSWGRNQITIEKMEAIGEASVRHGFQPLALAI
As to the kind of experiment: crystal structure; AAR incubated with stearoyl-CoA (1:3), then with ADO (1:1), gel filtration; crystals in 0.1 M HEPES pH 7.5, 20% PEG8000; NADPH form by soaking. The note with it: both partners purified. Background: In gel filtration, larger molecules generally elute earlier.

Read-outs that look alike come from different tables or passages of the source.

One may read the Kd as a measure of binding affinity in units of concentration.

T1 sequence (Q54765 whole entry): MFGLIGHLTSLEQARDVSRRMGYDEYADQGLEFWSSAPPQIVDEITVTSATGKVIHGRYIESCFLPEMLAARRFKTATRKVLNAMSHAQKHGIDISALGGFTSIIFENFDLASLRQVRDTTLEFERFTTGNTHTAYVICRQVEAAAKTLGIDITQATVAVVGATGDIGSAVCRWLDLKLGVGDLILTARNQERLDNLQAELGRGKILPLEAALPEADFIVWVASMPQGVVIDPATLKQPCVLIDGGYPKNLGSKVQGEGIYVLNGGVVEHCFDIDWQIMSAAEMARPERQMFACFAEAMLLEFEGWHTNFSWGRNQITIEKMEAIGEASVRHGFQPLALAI
Procedure for AAR-wt: The binding affinity of AAR with ADO or stearoyl-CoA was measured by isotheral titration calorimetry (ITC) using a MicroCal Auto-ITC200 microcalorimeter (GE Healthcare Bio-sciences, Pittsburgh, PA). […] Wild type or mutants of ADO (or AAR) were placed into the sample cell (200 µL working volume) at a final concentration of 30 µM (60 µM for AAR) and was titrated with successive 2-µL injections of AAR protein with concentration of 500 µM (or ADO protein with concentration of 1 mM). Titrating AAR (500 µM) or ADO (1 mM) into the same buffer was performed as a control to determine the background correction. […] Injection of stearyol-CoA into the reaction buffer was performed as control to determine background correction.

Regarding `[K+]` [K^+], the “binding of metal ion with AAR (in words)” value is recorded as “failed to detect signs of AAR binding K^+ ions” in the experiment on AAR [1] and “do not stably/directly bind AAR” with AAR [1] (listed as K+). Further, in the experiment with AAR [2], the “stimulation of AAR activity by monovalent metal ions” value is 10–20 fold.
For the molecule `CCCCCCCCCCCCCCCCCC(=O)SCCNC(=O)CCNC(=O)[C@H](O)C(C)(C)COP(=O)(O)OP(=O)(O)OC[C@H]1O[C@@H](n2cnc3c(N)ncnc32)[C@H](O)[C@@H]1OP(=O)(O)O` [stearoyl-CoA, stearoyl-coenzyme A], the Kd on AAR-wt is 2.3 ± 0.38 µM.

B1: aldehyde-deformylating oxygenase from Synechococcus elongatus PCC 7942, wild type, His-tag removed (enzyme, UniProt Q54764 1-231, looked up)
chain: MPQLEASLELDFQSESYKDAYSRINAIVIEGEQEAFDNYNRLAEMLPDQRDELHKLAKMEQRHMKGFMACGKNLSVTPDMGFAQKFFERLHENFKAAAAEGKVVTCLLIQSLIIECFAIAAYNIYIPVADAFARKITEGVVRDEYLHRNFGEEWLKANFDASKAELEEANRQNLPLVWLMLNEVADDARELGMERESLVEDFMIAYGEALENIGFTTREIMRMSAYGLAAV
notes: aldehyde-deformylating oxygenase (ADO), Synechococcus elongatus PCC 7942, gene Synpcc7942_1593; Constructed and expressed 'similarly as' SeAAR in the modified pET24a (C-terminal TEV site and His6 peptide); ENLYFQ probably stays after cleavage (surmised); also called ADO; SeADO; not shown: His6, C-terminal, cleaved
Consider B1, for which the binding result in experiment [3] was “binds”.
